#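 Five concentrations, 48 hours, 96-well plates. At the TGI there is no net growth.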
# Legend:
# Assay in all cases: inhibition of tumour cell growth, NCI panel, 48 h
# SR leukemia = tested on: SR leukemia
# HCT-15 colon = tested on: HCT-15 colon
# RPMI-8226 leukemia = tested on: RPMI-8226 leukemia
# SF-539 CNS = tested on: SF-539 CNS
# SW-620 colon = tested on: SW-620 colon
# HCT-116 colon = tested on: HCT-116 colon
# U251 CNS = tested on: U251 CNS
# HOP-62 NSCLC = tested on: HOP-62 NSCLC
# MALME-3M melanoma = tested on: MALME-3M melanoma
# ACHN renal = tested on: ACHN renal
# SK-OV-3 ovarian = tested on: SK-OV-3 ovarian
# SK-MEL-5 melanoma = tested on: SK-MEL-5 melanoma
# NCI-H23 lung = tested on: NCI-H23 lung
# LOX IMVI melanoma = tested on: LOX IMVI melanoma
# HT29 colon = tested on: HT29 colon
# 786-0 renal = tested on: 786-0 renal
# MDA-N = tested on: MDA-N
# CAKI-1 renal = tested on: CAKI-1 renal
# NCI/ADR-RES ovarian = tested on: NCI/ADR-RES ovarian
# T-47D breast = tested on: T-47D breast
Compound,TGI (SR leukemia) [µM],TGI (HCT-15 colon) [µM],TGI (RPMI-8226 leukemia) [µM],TGI (SF-539 CNS) [µM],TGI (SW-620 colon) [µM],TGI (HCT-116 colon) [µM],TGI (U251 CNS) [µM],TGI (HOP-62 NSCLC) [µM],TGI (MALME-3M melanoma) [µM],TGI (ACHN renal) [µM],TGI (SK-OV-3 ovarian) [µM],TGI (SK-MEL-5 melanoma) [µM],TGI (NCI-H23 lung) [µM],TGI (LOX IMVI melanoma) [µM],TGI (HT29 colon) [µM],TGI (786-0 renal) [µM],TGI (MDA-N) [µM],TGI (CAKI-1 renal) [µM],TGI (NCI/ADR-RES ovarian) [µM],TGI (T-47D breast) [µM]
CC1=CP(=O)(OC(C)C)C=C(C)C1=C(Cl)Cl (configuration not stated),> 100,> 100,> 100,> 100,> 100,70.5,> 100,> 100,> 100,> 100,33.4,> 100,> 100,> 100,> 100,> 100,–,–,–,–
CN1C(=O)C(O)CC1c1ccccc1F (configuration not stated),> 100,> 100,> 100,> 100,> 100,> 100,> 100,> 100,> 100,> 100,–,> 100,> 100,> 100,> 100,> 100,> 100,> 100,> 100,–
Cc1cc(C(O)CCCc2ccccc2)cc(C)c1O (configuration not stated),–,> 100,> 100,> 100,> 100,–,> 100,> 100,64.3,92.3,> 100,48.9,> 100,> 100,–,> 100,–,–,–,–
Cc1c(N)c(C#N)c2n(C)c3ncccc3n2c1=O,> 100,> 100,> 100,> 100,> 100,> 100,> 100,> 100,> 100,> 100,> 100,> 100,> 100,> 100,> 100,> 100,–,> 100,–,–
CCOC(=O)CCCc1cc(=O)c2c(C)c3[nH]c4ccc(Cl)cc4c3c(C)c2[nH]1,> 100,> 100,> 100,31.6,> 100,> 100,50.5,44.4,73.2,80.3,–,49.2,> 100,> 100,53.8,38.2,> 100,43.2,66.2,–
C[n+]1c(-c2ccc(/C=N\Nc3ccnc(N/N=C/c4ccc(-c5cn6ccsc6[n+]5C)cc4)n3)cc2)cn2ccsc21,64.8,> 100,> 100,70.3,> 100,–,94.5,51.6,85.4,> 100,> 100,35.4,> 100,–,> 100,32.8,26.7,80.8,> 100,–
Cn1c(=O)oc2cc(C(O)CN3CCN(Cc4ccc5c(c4)OCO5)CC3)ccc21 (configuration not stated),> 100,> 100,–,> 100,> 100,> 100,> 100,> 100,> 100,> 100,> 100,–,> 100,> 100,> 100,> 100,–,> 100,> 100,> 100
O=[N+]([O-])c1ccc(C2Nn3c(nnc3-c3cccc([N+](=O)[O-])c3)S2)cc1 (configuration not stated),> 100,> 100,> 100,> 100,> 100,> 100,> 100,> 100,> 100,> 100,> 100,> 100,> 100,> 100,> 100,> 100,–,> 100,> 100,> 100
Cc1ccc(NC(=O)CC(=O)N2N=C(N(c3ccccc3)c3ccccc3)CC2c2ccccc2)cc1 (configuration not stated),–,> 100,> 100,> 100,> 100,> 100,> 100,> 100,–,> 100,> 100,> 100,> 100,–,> 100,> 100,–,> 100,> 100,> 100
c1ccc(C2(c3cc4ccccc4[nH]3)OCCO2)nc1,–,> 100,–,> 100,> 100,> 100,> 100,> 100,> 100,> 100,> 100,> 100,> 100,> 100,> 100,> 100,–,> 100,> 100,> 100
CC(C)(C)OC(=O)NC(Cc1ccc(OC(C)(C)C)cc1)C(=O)N[C@H]1CC[C@H](C(=O)O)C1 (some centres not stated),> 100,> 100,> 100,> 100,> 100,> 100,> 100,> 100,–,> 100,> 100,> 100,> 100,> 100,> 100,> 100,> 100,–,> 100,–
COC(=O)C1=C(N)C2=C(N)Oc3ccccc3C2CC1=C(C#N)C#N (configuration not stated),> 100,36.8,48.6,71.2,> 100,99.2,> 100,> 100,58.1,72.8,> 100,52.7,54,44.2,53.3,> 100,–,72.2,47.5,67.1
O=C1NC(=S)NC(=O)C1=Cc1ccc([N+](=O)[O-])o1,43.9,32.6,54,61.1,41.6,34,> 100,> 100,28.4,34.6,> 100,44.5,31.9,38.7,48.7,36.5,–,37,–,–
O=[N+]([O-])c1ccccc1S(=O)(=O)c1cccc2c1NCCC2,> 100,> 100,> 100,> 100,> 100,> 100,–,> 100,> 100,> 100,> 100,52.3,–,> 100,> 100,> 100,> 100,> 100,> 100,–
O=C(N[C@H](CO)[C@H](O)c1ccc([N+](=O)[O-])cc1)C(Cl)Cl,> 100,> 100,> 100,> 100,> 100,> 100,> 100,> 100,> 100,> 100,> 100,> 100,> 100,> 100,> 100,> 100,> 100,> 100,> 100,–
Cc1cc(N(CCC#N)CCC#N)ccc1/C(Sc1ccccc1)=C(\NC(=O)/C=C/c1ccccc1)C(=O)Sc1ccccc1,> 31.5,26.4,6.07,3.44,15.3,9.79,5.83,8.53,25,18.7,19.8,16.3,11.2,2.52,11.8,8.8,–,12.1,–,–
[N-]=[N+]=NC1(Cc2ccccc2)C(=O)Nc2ccccc2C1=O (configuration not stated),> 100,> 100,–,> 100,> 100,> 100,> 100,> 100,> 100,> 100,> 100,> 100,> 100,> 100,> 100,> 100,–,> 100,–,–
COC(=O)C1=C(C)NC(CF)=C(C(=O)OC)C1c1cccc2c(=O)c3ccccc3oc12 (configuration not stated),> 100,> 100,> 100,> 100,> 100,> 100,–,> 100,83.6,> 100,> 100,> 100,> 100,> 100,> 100,33.8,–,62.3,27.8,> 100
CCN(CC)CCC(=O)c1ccc(Cl)c(Cl)c1,64.2,> 100,> 100,–,41.3,68.3,> 100,> 100,41.7,> 100,> 100,35.5,–,30.1,> 100,31.9,–,–,> 100,51.1
Cc1cc2c(cc1Cl)SC(NNC(=O)c1ccccc1)=NS2(=O)=O,–,> 10,> 10,> 10,> 10,> 10,> 10,> 10,> 10,> 10,> 10,> 10,> 10,> 10,> 10,> 10,–,> 10,> 10,> 10

# From PubChem BioAssay (NCI)
